pIC50: −log10 of the molar value.

Assay [1] deals with pulmonary microcytoma GLC-4. The experiment in a line: activity in vivo on human tumour line implanted s.c. in naked mice. To be noted: GLC-4 s.c. in naked mice, 6 mg/kg every 3-4 days, 5 cycles (total 30 mg/kg); for LCK (Log Cell Kill): T-C/DT×3.32; for TWI % (300 mg), Tumour Weight Inhibition %: determined 7-10 days after last treatment. The protocol: The activity in vivo of (Ia), compared with that of (V), was also evaluated on a human tumour line implanted s.c. in naked mice (pulmonary microcytoma GLC-4) after administration of 6 mg/kg of drug every 3-4 days, for 5 treatment cycles.
The results obtained are shown in Table 2, which reports the Tumour Weight Inhibition % (TWI% determined 7-10 days after the last treatment) and the Log Cell Kill [LCK in animals treated according to the formula: T-C/DT×3.32, where T and C are the days that tumours take to reach the significant weight fixed in each test. in treated animals (T) and in controls (C)].

Assay [2] concerns GLC-4 (pulmonary microcarcinoma). Briefly: cytotoxicity in vitro on GLC-4. Format: cell-based, human. To be noted: read-out: IC50, concentration necessary for 50% inhibition of diseased cells growth, 24-h exposure to the drug. The text has this:
(§1) (R8=H, R9=R10=R12=OH, R11=NH2) described in patent application WO 95/09173 on lines H460 (pulmonary carcinoma) and GLC-4 (pulmonary microcarcinoma).

For assay [3], the system named is H460 (pulmonary carcinoma). The experiment in a line: cytotoxicity in vitro on H460. The class given is cell-based. Particulars: read-out: IC50, concentration necessary for 50% inhibition of diseased cells growth, 24-h exposure to the drug.
Text: as §1

On to `CC1OC(OC2C(O)CC(OC3CC(O)(C(=O)CO)Cc4c(O)c5c(c(O)c43)C(=O)c3ccccc3C5=O)OC2C)CC(N)C1O.Cl` [V, 7-O-[2,6-dideoxy-4-O-(2,3,6-trideoxy-3-amino-α-L-lyxo-hexopyranosyl)-α-L-lyxo-hexopyranosyl]-4-demethoxy-doxorubicinone chlorhydrate], for which, in assay [1], the “LCK (Log Cell Kill)” value is given as 0.4 and the “TWI % (300 mg), Tumour Weight Inhibition %” value turned out to be 60%. Also, the pIC50 in assay [2] is 7.26. In addition, the pIC50 in assay [3] is 7.85.
For `C[C@@H]1O[C@@H](O[C@@H]2[C@H](C)O[C@@H](O[C@H]3C[C@](O)(C(=O)CO)Cc4c(O)c5c(c(O)c43)C(=O)c3ccccc3C5=O)C[C@@H]2O)C[C@H](N)[C@H]1O.Cl` [Ia, 7-O-[2,6-dideoxy-4-O-(2,3,6-trideoxy-3-amino-α-L-arabino-hexopyranosyl)-α-L-lyxo-hexopyranosyl]-4-demethoxy-doxorubicinone chlorhydrate] the same measures were 1.1, 93%, 7.96 and 8.00.
